System: trypsin
Assay: Digestion with trypsin (trypsin digestion of methadone prodrugs and release of methadone)
Format: biochemical
Protocol: FIG. 6 depicts an example of trypsin digestion of methadone prodrugs according to certain embodiments. All pro-drugs are digested fully within 8-24 h. The pro-drug with 1-methylethyl linker is slightly slower, requiring 24-48 h.

Compound: CC=C(OC(=O)N(C)C(C)CNC(=O)[C@H](CCCNC(=N)N)NC(=O)c1ccccc1)C(CC(C)N(C)C)(c1ccccc1)c1ccccc1 (stereo partly drawn) [pro-drug with 1-methylethyl linker, 6-(dimethylamino)-4,4-diphenylhept-2-en-3-yl (1-((S)-2-benzamido-5-guanidinopentanamido)propan-2-yl)(methyl)carbamate]
- time until pro-drug is digested fully by trypsin (FIG. 6): 24 to 48 h
- release of methadone from the release intermediate after trypsin digestion (FIG. 6 and FIGS. 7A-7D, result in words): rapid release to methadone
